In PMC10858199, “Amyloid-β aggregates activate peripheral monocytes in mild cognitive impairment” (Nature Communications, 2024):
pKd: −log10 of the molar value.

Columns and labels:
CR3 (CD11b) = CR3 (CD11b) surface expression on iPSC-derived microglia; type: cell-based, human; details: Aβ 5 µg/mL, 60 min, 37 °C
Description: (§2) For microglial differentiation, the human induced pluripotent stem cell (iPSC) line BIHi043A-XM001 was used[56]. Cells were cultured on Matrigel™ (cat. no. 356234, Corning)-coated culture plates in Essential 8™ Flex Medium (cat. no. A2858501, Gibco). The culture medium was changed daily, and cells were passaged in clusters every 3–4 days at a density of 80% using 0.5 mM EDTA/PBS. iPSCs were differentiated into microglia using the protocol described[72]. First, iPSCs were differentiated into hematopoietic progenitors (HP) using STEMdiff™ Hematopoietic Kit (cat. No. 05310, Stem Cell Technologies). On Day −1, iPSCs with a 70–80% density were passaged with ReLeSR™ (cat. no. 05872, Stem Cell Technologies) into E8 flex containing Matrigel-coated 6-well plates. Clusters of 100 cells were seeded at the desired density of 50–100 per well. At Day 0, in wells with 40–80 clusters, the E8 flex medium was replaced with 2 mL medium A. On Day 2, 1 mL of medium A was added to the well. On Day 3, the medium was removed and replaced with 2 mL Medium B. On Days 5, 7, and 9, 1 mL of medium B was added to the well. […] The adherent cells were gently washed off to increase the yield using a 5 mL serological pipette. […] On Days 13, 15, 17, 19, and 21, 1 mL of microglia differentiation medium was added to the well. […] On Days 38–42, the microglia were ready for functional studies. […]

CR4 I-domain = molecular target: T1, CR4 I-domain (Homo sapiens, UniProt P20702, I333G); assay: SPR, CR4 I domain binding to immobilized Aβ or iC3b; details: even at high concentrations of the CR4 I-domain (up to 10000 nM)
T1 construct: made in house
T1 sequence (P20702 165-339 I333G limits assumed): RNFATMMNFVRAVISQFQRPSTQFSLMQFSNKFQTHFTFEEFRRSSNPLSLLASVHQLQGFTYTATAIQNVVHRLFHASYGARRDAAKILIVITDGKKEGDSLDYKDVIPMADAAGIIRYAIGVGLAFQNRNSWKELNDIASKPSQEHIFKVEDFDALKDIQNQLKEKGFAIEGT
Description: (§1) SPR assays were performed using CM-4 chips (cat no. 50-105-5323, Cytiva) and run in the BIAcore 3000 instrument (GE Health Care). As described, the chip surfaces were coupled with monomeric Aβ, aggregated Aβ, or iC3b using an amine-coupling chemistry method. A reference surface was prepared by coupling the surfaces with ethanolamine rather than protein. The CR3 and CR4 I domains were stabilized in the activated conformation by mutation of a C-terminal isoleucine residue to glycine and prepared as described earlier. […] The prepared solutions were injected over the surfaces; the contact time (tc) was 180 s, and the following dissociation phase time was 400 s. […] The distribution P (kd, KD) was calculated using the discretization of the equation:1 STotal=∫KDminKDmax∫koffminkoffmaxSkoff,KD,canalyte,tPkoff,KDdkoffdKD where S is the SPR signal. […] This was done through a global fit to the association and dissociation traces at the analyte concentrations (canalyte) mentioned above. The algorithm used Tikhonov regularization as described[44] at a confidence level of p = 0.95 to determine the most parsimonious distribution consistent with the data, showing only features essential to fit the data.

iPSC-derived microglia = assay: Lysosomal activity of iPSC-derived microglia (LysoTracker); type: cell-based, human; details: Aβ 5 µg/mL, 60 min, 37 °C
Description: as §2

Aβ = assay: FDM-NTA of synthetic Aβ in PBS, QD-antibody conjugates; type: binding, human; details: PBS pH 7.4; detected by aducanumab biosimilar; A-Aβ value on average
Description: QD Ab (Ab) coupling was performed using SiteClick Qdot 655 Ab Labeling Kit (no. S10453; Molecular Probes) according to manufactures instructions. In brief, Ab, either “Aducanumab biosimilar” human IgG1,κ to aggregated Aβ (cat. no. PX-TA1335, lot. no. 040721-A01, ProteoGenix), or “Isotype control” human IgG1,κ (cat.no. HG1K, lot.no. MA14OC2803, SinoBiologicals) was concentrated in Ab preparation buffer to a concentration of 2 mg/mL or above. The buffer was simultaneously changed to 0.05 M Tris, pH 7.0. Next, carbohydrates on the Ab were modified by incubation with β-galactosidase for 4 h at 37 °C. […]
Samples for NTA were analyzed using a NanoSight NS300 system (Malvern Panalytical). The system was configured with a 405-nm laser, a high-sensitivity scientific complementary metal–oxide–semiconductor Orca Flash 2.8/Hamamatsu C11440 camera (Malvern Panalytical), a syringe pump, and for fluorescence measurements, a 650-nm long-pass filter was used. […] The videos were collected and analyzed using NanoSight software (version 3.3 and 3.4 with a concentration upgrade; Malvern). […] The camera level was set for both scattering and fluorescence mode to a maximum of 16. […] Only samples analyzed with the same detection threshold were compared. Pure protein was analyzed in PBS/EDTA with and without a 1:20,000 dilution of anti-Aβ (Aducanumab bios.) or isotype-matched Ab-QD reporters. […]

CR4 (CD11c) = CR4 (CD11c) surface expression on iPSC-derived microglia; type: cell-based, human; details: Aβ 5 µg/mL, 60 min, 37 °C
Description: as §2

CR3 I-domain = assay: SPR, CR3 I domain binding to immobilized Aβ or iC3b; parameters: species or system human; details: pH 7.4, 1 mM MgCl2; EVILFIT 2D distribution
Description: as §1

Interaction with CR4 I-domain (CR4 I-domain): no interaction | pKd (CR3 I-domain): ~4.10 | koff (CR3 I-domain): 0.11 s⁻¹
Substance: M-Aβ: Unaggregated and mainly monomeric synthetic human Aβ
CD11b (CR3) surface expression (CR3 (CD11b)): not affected | Lysosomal activity of iMGs (iPSC-derived microglia): no such ability | Particles above 600 nm (Aβ): less than 0.5 × 10^6 particles/mL | CD11c (CR4) surface expression (CR4 (CD11c)): KIM127 Ab did not influence the CD11c expression
